Laboratory results reported in US11993599B2, “Therapeutic compounds” (Genentech, Inc., priority 2021, dated 2024).

Key:
[1] = biological target: BRM (Homo sapiens, UniProt P51531); assay: Immunofluorescence assay for BRM degradation in SW1573 cells; type: cell-based; design: treated overnight at 4° C. with either BRM primary antibody (Cell signaling Cat #11966) or BRG primary antibody; endogenous in cells; host or cells: SW1573; settings: 20 hours incubation; for DC50: immunofluorescence mean nuclear signal, read-out: BRM IF Degradation IC50; for BRM IF Degradation Sinf (%): normalized to a known degrader control
In short: (§1)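 Read-out is per-cell mean nuclear BRM or BRG1 immunofluorescence, imaged after 20 h compound exposure of SW1573 cells and normalized to a known degrader control. Concentration-response curves, fit with a floating maximum, yield degradation IC50 and Dmax.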

[2] = biological target: T1, BRG1 (Homo sapiens, UniProt P51532); assay: Immunofluorescence assay for BRG1 degradation in SW1573 cells; type: cell-based; settings: 20 hours incubation; for DC50: immunofluorescence mean nuclear signal, read-out: BRG1 IF Degradation IC50; for Dmax: SW1573, 20 h, normalized to a known degrader control, read-out: BRG1 IF Degradation Sinf (%)
T1 construct: either BRM primary antibody (Cell signaling Cat #11966) or BRG primary antibody (Abcam, ab 110641); endogenous in cells; host or cells: SW1573
In short: as §1

T1 sequence (P51532 whole entry): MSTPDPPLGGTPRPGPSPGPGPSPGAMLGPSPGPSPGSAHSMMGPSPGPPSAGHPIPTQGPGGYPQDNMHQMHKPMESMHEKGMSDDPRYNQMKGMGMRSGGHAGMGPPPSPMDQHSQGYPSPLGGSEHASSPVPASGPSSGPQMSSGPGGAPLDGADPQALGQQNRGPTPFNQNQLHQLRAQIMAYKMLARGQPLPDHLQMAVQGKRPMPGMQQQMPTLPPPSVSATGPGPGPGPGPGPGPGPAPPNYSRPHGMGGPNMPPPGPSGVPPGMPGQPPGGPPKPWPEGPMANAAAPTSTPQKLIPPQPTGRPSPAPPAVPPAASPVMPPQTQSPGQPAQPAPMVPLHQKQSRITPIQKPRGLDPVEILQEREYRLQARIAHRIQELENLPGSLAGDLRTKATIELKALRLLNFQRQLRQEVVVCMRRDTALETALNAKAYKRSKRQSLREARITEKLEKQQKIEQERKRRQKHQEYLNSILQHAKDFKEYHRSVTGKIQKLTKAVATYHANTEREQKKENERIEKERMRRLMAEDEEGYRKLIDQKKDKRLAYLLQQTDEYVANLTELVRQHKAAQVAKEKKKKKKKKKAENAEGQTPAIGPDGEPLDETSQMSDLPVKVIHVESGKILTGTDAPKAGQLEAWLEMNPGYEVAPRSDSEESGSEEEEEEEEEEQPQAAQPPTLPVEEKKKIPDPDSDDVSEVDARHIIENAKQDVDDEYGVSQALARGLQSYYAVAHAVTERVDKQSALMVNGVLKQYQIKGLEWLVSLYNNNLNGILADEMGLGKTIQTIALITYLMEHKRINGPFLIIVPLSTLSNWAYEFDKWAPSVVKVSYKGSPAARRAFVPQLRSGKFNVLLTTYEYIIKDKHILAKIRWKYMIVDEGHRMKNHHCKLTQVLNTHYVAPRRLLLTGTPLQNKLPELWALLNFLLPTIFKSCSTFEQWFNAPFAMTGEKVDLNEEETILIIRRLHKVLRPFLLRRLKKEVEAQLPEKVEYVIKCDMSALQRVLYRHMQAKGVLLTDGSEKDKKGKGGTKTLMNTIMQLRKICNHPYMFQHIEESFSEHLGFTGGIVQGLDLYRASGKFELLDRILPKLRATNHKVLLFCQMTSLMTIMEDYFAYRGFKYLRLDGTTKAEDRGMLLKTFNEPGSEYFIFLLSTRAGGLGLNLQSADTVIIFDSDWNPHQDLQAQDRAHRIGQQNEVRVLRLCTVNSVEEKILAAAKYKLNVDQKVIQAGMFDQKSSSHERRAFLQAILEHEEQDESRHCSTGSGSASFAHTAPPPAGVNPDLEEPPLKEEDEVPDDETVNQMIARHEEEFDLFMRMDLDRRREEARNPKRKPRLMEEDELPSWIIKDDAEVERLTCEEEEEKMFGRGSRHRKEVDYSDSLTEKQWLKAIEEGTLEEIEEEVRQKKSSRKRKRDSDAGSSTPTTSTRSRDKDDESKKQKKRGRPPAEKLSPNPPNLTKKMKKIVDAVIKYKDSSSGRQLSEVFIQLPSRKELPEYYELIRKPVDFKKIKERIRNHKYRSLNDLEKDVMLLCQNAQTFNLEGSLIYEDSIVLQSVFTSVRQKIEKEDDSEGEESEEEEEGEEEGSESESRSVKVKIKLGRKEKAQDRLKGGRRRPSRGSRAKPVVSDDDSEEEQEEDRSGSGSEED
BRM, sequence (P51531 whole entry): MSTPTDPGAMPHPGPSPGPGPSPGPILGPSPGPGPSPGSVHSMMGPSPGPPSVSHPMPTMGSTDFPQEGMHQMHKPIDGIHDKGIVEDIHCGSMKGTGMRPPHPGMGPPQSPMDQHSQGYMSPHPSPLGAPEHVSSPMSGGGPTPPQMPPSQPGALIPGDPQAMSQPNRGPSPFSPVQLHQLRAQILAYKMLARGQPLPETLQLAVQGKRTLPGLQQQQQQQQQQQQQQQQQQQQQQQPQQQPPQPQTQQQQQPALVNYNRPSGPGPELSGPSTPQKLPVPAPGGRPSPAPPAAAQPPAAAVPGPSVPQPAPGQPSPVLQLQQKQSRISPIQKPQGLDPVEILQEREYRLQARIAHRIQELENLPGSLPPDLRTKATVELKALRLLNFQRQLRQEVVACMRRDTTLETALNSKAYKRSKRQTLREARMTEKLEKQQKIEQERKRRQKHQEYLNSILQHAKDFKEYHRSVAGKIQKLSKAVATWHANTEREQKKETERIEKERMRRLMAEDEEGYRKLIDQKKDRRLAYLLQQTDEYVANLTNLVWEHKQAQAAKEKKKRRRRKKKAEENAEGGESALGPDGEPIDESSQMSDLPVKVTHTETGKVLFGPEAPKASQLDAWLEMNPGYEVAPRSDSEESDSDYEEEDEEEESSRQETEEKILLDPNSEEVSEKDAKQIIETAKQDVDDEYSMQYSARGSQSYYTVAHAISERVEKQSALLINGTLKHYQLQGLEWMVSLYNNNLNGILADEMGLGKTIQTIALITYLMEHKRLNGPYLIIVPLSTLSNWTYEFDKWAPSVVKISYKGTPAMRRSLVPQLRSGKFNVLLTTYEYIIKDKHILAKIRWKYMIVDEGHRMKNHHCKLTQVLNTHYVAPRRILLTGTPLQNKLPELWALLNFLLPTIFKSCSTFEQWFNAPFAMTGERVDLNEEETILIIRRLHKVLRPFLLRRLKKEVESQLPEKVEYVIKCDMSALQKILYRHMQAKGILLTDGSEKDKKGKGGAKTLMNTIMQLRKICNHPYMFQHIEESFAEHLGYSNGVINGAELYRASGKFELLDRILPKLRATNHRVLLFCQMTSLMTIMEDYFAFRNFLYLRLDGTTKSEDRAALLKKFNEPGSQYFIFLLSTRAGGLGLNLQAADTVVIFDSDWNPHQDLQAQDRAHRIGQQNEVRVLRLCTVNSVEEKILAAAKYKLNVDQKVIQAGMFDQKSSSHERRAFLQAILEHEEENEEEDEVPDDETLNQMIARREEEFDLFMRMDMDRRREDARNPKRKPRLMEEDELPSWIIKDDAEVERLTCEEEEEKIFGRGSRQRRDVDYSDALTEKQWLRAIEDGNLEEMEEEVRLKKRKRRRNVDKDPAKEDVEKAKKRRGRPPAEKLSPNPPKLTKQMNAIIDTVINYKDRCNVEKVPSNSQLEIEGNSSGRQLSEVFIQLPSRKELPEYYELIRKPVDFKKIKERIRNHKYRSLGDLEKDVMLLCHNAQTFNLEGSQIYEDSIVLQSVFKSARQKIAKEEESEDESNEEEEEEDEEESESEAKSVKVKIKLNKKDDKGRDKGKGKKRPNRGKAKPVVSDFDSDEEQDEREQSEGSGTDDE

| Structure (SMILES) | DC50 [1] | BRM IF Degradation Sinf (%) [1] | DC50 [2] | Dmax [2] |
| --- | --- | --- | --- | --- |
| COC1CN(CC#Cc2cc(N3C4CCC3CN(c3cc(-c5ccccc5O)nnc3N)C4)ccn2)C1 [Compound 174, 2-[6-amino-5-[8-[2-[3-(3-methoxyazetidin-1-yl)prop-1-ynyl]-4-pyridyl]-3,8-diazabicyclo[3.2.1]octan-3-yl]pyridazin-3-yl]phenol] | 10 to 100 nM | F (F indicates −71%-−120%) | 10 to 100 nM | 30 to 70% |
| Nc1nnc(-c2ccccc2O)cc1N1CC2CCC(C1)N2c1ccnc(C#CCN2CC3(CCCOC3)C2)c1 [Compound 175, 2-[6-amino-5-[8-[2-[3-(6-oxa-2-azaspiro[3.5]nonan-2-yl)prop-1-ynyl]-4-pyridyl]-3,8-diazabicyclo[3.2.1]octan-3-yl]pyridazin-3-yl]phenol] | < 10 nM | E (E indicates −30%-−70%) | < 10 nM | 30 to 70% |
| COC(=O)C1CCN1CC#Cc1cc(N2C3CCC2CN(c2cc(-c4ccccc4O)nnc2N)C3)ccn1 (stereo not drawn) [Compound 176, methyl 1-[3-[4-[3-[3-amino-6-(2-hydroxyphenyl)pyridazin-4-yl]-3,8-diazabicyclo[3.2.1]octan-8-yl]-2-pyridyl]prop-2-ynyl]azetidine-2-carboxylate] | 10 to 100 nM | E (E indicates −30%-−70%) | > 100 nM | – |
| Nc1nnc(-c2ccccc2O)cc1N1CC2CCC(C1)N2c1ccnc(C#CCN2CC3(C2)C(CF)CCS3(=O)=O)c1 (stereo not drawn) [Compound 177, 2-[6-amino-5-[8-[2-[3-[8-(fluoromethyl)-5,5-dioxo-5lambda6-thia-2-azaspiro[3.4]octan-2-yl]prop-1-ynyl]-4-pyridyl]-3,8-diazabicyclo[3.2.1]octan-3-yl]pyridazin-3-yl]phenol] | 10 to 100 nM | E (E indicates −30%-−70%) | 10 to 100 nM | 30 to 70% |
| Nc1nnc(-c2ccccc2O)cc1N1CC2CCC(C1)N2c1ccnc(C#CCN2CC3(CCCO3)C2)c1 [Compound 178, 2-[6-amino-5-[8-[2-[3-(5-oxa-2-azaspiro[3.4]octan-2-yl)prop-1-ynyl]-4-pyridyl]-3,8-diazabicyclo[3.2.1]octan-3-yl]pyridazin-3-yl]phenol] | 10 to 100 nM | F (F indicates −71%-−120%) | < 10 nM | 30 to 70% |
| Nc1nnc(-c2ccccc2O)cc1N1CC2CCC(C1)N2c1ccnc(C#CCN2CC(CO)(c3ccccc3)C2)c1 [Compound 179, 2-[6-amino-5-[8-[2-[3-[3-(hydroxymethyl)-3-phenyl-azetidin-1-yl]prop-1-ynyl]-4-pyridyl]-3,8-diazabicyclo[3.2.1]octan-3-yl]pyridazin-3-yl]phenol] | 10 to 100 nM | F (F indicates −71%-−120%) | 10 to 100 nM | 30 to 70% |
| CC1CN(CC#Cc2cc(N3C4CCC3CN(c3cc(-c5ccccc5O)nnc3N)C4)ccn2)C1C (stereo not drawn) [Compound 180, 2-[6-amino-5-[8-[2-[3-(2,3-dimethylazetidin-1-yl)prop-1-ynyl]-4-pyridyl]-3,8-diazabicyclo[3.2.1]octan-3-yl]pyridazin-3-yl]phenol] | < 10 nM | E (E indicates −30%-−70%) | < 10 nM | 30 to 70% |
| Nc1nnc(-c2ccccc2O)cc1N1CC2CCC(C1)N2c1ccnc(C#CCN2CCCCC(F)(F)C2)c1 [Compound 181, 2-[6-amino-5-[8-[2-[3-(3,3-difluoroazepan-1-yl)prop-1-ynyl]-4-pyridyl]-3,8-diazabicyclo[3.2.1]octan-3-yl]pyridazin-3-yl]phenol] | 10 to 100 nM | F (F indicates −71%-−120%) | 10 to 100 nM | 30 to 70% |
| COC(=O)C1CCS(=O)(=O)C12CN(CC#Cc1cc(N3C4CCC3CN(c3cc(-c5ccccc5O)nnc3N)C4)ccn1)C2 (stereo not drawn) [Compound 183, methyl 2-[3-[4-[3-[3-amino-6-(2-hydroxyphenyl)pyridazin-4-yl]-3,8-diazabicyclo[3.2.1]octan-8-yl]-2-pyridyl]prop-2-ynyl]-5,5-dioxo-51ambda6-thia-2-azaspiro[3.4]octane-8-carboxylate] | > 100 nM | E (E indicates −30%-−70%) | > 100 nM | – |
| CC1CCN1CC#Cc1cc(N2C3CCC2CN(c2cc(-c4ccccc4O)nnc2N)C3)ccn1 (stereo not drawn) [Compound 184, 2-[6-amino-5-[8-[2-[3-(2-methylazetidin-1-yl)prop-1-ynyl]-4-pyridyl]-3,8-diazabicyclo[3.2.1]octan-3-yl]pyridazin-3-yl]phenol] | < 10 nM | E (E indicates −30%-−70%) | < 10 nM | 30 to 70% |
| Nc1nnc(-c2ccccc2O)cc1N1CC2CCC(C1)N2c1ccnc(C#CCN2CC3(CC(O)C3)C2)c1 [Compound 185, 2-[3-[4-[3-[3-amino-6-(2-hydroxyphenyl)pyridazin-4-yl]-3,8-diazabicyclo[3.2.1]octan-8-yl]-2-pyridyl]prop-2-ynyl]-2-azaspiro[3.3]heptan-6-ol] | > 100 nM | F (F indicates −71%-−120%) | 10 to 100 nM | 30 to 70% |
| COC[C@@H]1CCN1CC#Cc1cc(N2C3CCC2CN(c2cc(-c4ccccc4O)nnc2N)C3)ccn1 [Compound 186, 2-[6-amino-5-[8-[2-[3-[(2S)-2-(methoxymethyl)azetidin-1-yl]prop-1-ynyl]-4-pyridyl]-3,8-diazabicyclo[3.2.1]octan-3-yl]pyridazin-3-yl]phenol] | < 10 nM | E (E indicates −30%-−70%) | 10 to 100 nM | 30 to 70% |
| CC1(C)CCN1CC#Cc1cc(N2C3CCC2CN(c2cc(-c4ccccc4O)nnc2N)C3)ccn1 [Compound 187, 2-[6-amino-5-[8-[2-[3-(2,2-dimethylazetidin-1-yl)prop-1-ynyl]-4-pyridyl]-3,8-diazabicyclo[3.2.1]octan-3-yl]pyridazin-3-yl]phenol] | < 10 nM | E (E indicates −30%-−70%) | < 10 nM | 30 to 70% |
| CN1CCOC2(C1)CN(CC#Cc1cc(N3C4CCC3CN(c3cc(-c5ccccc5O)nnc3N)C4)ccn1)C2 [Compound 188, 2-[6-amino-5-[8-[2-[3-(8-methyl-5-oxa-2,8-diazaspiro[3.5]nonan-2-yl)prop-1-ynyl]-4-pyridyl]-3,8-diazabicyclo[3.2.1]octan-3-yl]pyridazin-3-yl]phenol] | > 100 nM | E (E indicates −30%-−70%) | > 100 nM | – |
| Nc1nnc(-c2ccccc2O)cc1N1CC2CCC(C1)N2c1ccnc(C#CCN2CCCC(F)(F)CC2)c1 [Compound 189, 2-[6-amino-5-[8-[2-[3-(4,4-difluoroazepan-1-yl)prop-1-ynyl]-4-pyridyl]-3,8-diazabicyclo[3.2.1]octan-3-yl]pyridazin-3-yl]phenol] | < 10 nM | F (F indicates −71%-−120%) | < 10 nM | 30 to 70% |
| CC1CCN(CC#Cc2cc(N3C4CCC3CN(c3cc(-c5ccccc5O)nnc3N)C4)ccn2)CCC1O (stereo not drawn) [Compound 190, 1-[3-[4-[3-[3-amino-6-(2-hydroxyphenyl)pyridazin-4-yl]-3,8-diazabicyclo[3.2.1]octan-8-yl]-2-pyridyl]prop-2-ynyl]-5-methyl-azepan-4-ol] | < 10 nM | F (F indicates −71%-−120%) | < 10 nM | 30 to 70% |
| Nc1nnc(-c2ccccc2O)cc1N1CC2CCC(C1)N2c1ccnc(C#CCN2CCCC(O)CC2)c1 (stereo not drawn) [Compound 191, 1-[3-[4-[3-[3-amino-6-(2-hydroxyphenyl)pyridazin-4-yl]-3,8-diazabicyclo[3.2.1]octan-8-yl]-2-pyridyl]prop-2-ynyl]azepan-4-ol] | < 10 nM | F (F indicates −71%-−120%) | < 10 nM | 71 to 120% |
| CC1CCCCN(CC#Cc2cc(N3C4CCC3CN(c3cc(-c5ccccc5O)nnc3N)C4)ccn2)C1 (stereo not drawn) [Compound 192, 2-[6-amino-5-[8-[2-[3-(3-methylazepan-1-yl)prop-1-ynyl]-4-pyridyl]-3,8-diazabicyclo[3.2.1]octan-3-yl]pyridazin-3-yl]phenol] | < 10 nM | F (F indicates −71%-−120%) | < 10 nM | 71 to 120% |
| Nc1nnc(-c2ccccc2O)cc1N1CC2CCC(C1)N2c1ccnc(C#CCN2CCCC(F)CC2)c1 (stereo not drawn) [Compound 193, 2-[6-amino-5-[8-[2-[3-(4-fluoroazepan-1-yl)prop-1-ynyl]-4-pyridyl]-3,8-diazabicyclo[3.2.1]octan-3-yl]pyridazin-3-yl]phenol] | < 10 nM | F (F indicates −71%-−120%) | < 10 nM | 71 to 120% |
| Nc1nnc(-c2ccccc2O)cc1N1CC2CCC(C1)N2c1ccnc(C#CCN2CCCCC(F)C2)c1 (stereo not drawn) [Compound 194, 2-[6-amino-5-[8-[2-[3-(3-fluoroazepan-1-yl)prop-1-ynyl]-4-pyridyl]-3,8-diazabicyclo[3.2.1]octan-3-yl]pyridazin-3-yl]phenol] | < 10 nM | F (F indicates −71%-−120%) | < 10 nM | 30 to 70% |
| CC1CCCN(CC#Cc2cc(N3C4CCC3CN(c3cc(-c5ccccc5O)nnc3N)C4)ccn2)CC1C (stereo not drawn) [Compound 195, 2-[6-amino-5-[8-[2-[3-(3,4-dimethylazepan-1-yl)prop-1-ynyl]-4-pyridyl]-3,8-diazabicyclo[3.2.1]octan-3-yl]pyridazin-3-yl]phenol] | < 10 nM | F (F indicates −71%-−120%) | < 10 nM | 30 to 70% |
